Patent US12336980B2, “Dosing regimen for a selective S1P1 receptor agonist” (Vanda Pharmaceuticals Inc., priority 2014, dated 2025)

Columns and labels:
Type in all cases: in vivo, human
[1] = tested on: peripheral blood lymphocytes; test: Repeated daily oral dosing, number of peripheral blood lymphocytes (background finding); conditions: repeated daily oral dosing of 5 mg or more to humans
healthy subjects [2] = test: 12-lead ECG, heart rate, PR interval and ECG abnormalities, cross-over up-titration study; conditions: for mean maximum change from baseline in HR (12-lead ECG): Day 2, 2 h post-dose; for mean maximum change from baseline in HR (12-lead ECG) / decrease in HR vs. baseline (12-lead ECG): mean±SD; for decrease in HR vs. baseline (12-lead ECG): Day 3, 2 h after administration; for time for HR to return to baseline values post-dose (12-lead ECG): Day 2; for occurrence of HR <45 bpm, events / occurrence of HR <45 bpm, subjects: any time during the regimen, 12-lead ECG; for occurrence of PR interval >210 ms, events / occurrence of PR interval >210 ms, subjects: during the course of the study; for occurrence of HR <45 bpm, HR decrease >20 bpm, PR interval ≥200 ms or PR increase >20 ms, events / occurrence of HR <45 bpm, HR decrease >20 bpm, PR interval ≥200 ms or PR increase >20 ms, subjects / percentage of subjects with at least one event (HR <45 bpm, HR decrease >20 bpm, PR ≥200 ms, PR increase >20 ms): first 12 hours on Day 2
Method: (§1) In a single-center, double-blind, placebo-controlled, randomized, two-way cross-over study, 32 healthy subjects (15 males) received placebo on Day 1 followed by multiple-dose administration of either ponesimod or placebo (ratio 3:1). Ponesimod was administered alternately using regimen A (incremental dose increase from 2 to 20 mg) or B (10 mg for 7 days followed by a single-dose administration of 20 mg). Cardiodynamic (Holter and 12-lead ECG), pharmacokinetic, pharmacodynamic (total lymphocyte count), and safety variables were assessed.
(§2) The enrolled subjects came to the study center for each treatment period on Day −2 and participated in a run-in (all study procedures performed without study drug administration) on Day −1. On Day 1, subjects were randomized to one of the two possible sequences of the two up-titration regimens A and B (ratio 1:1). On Day 1, all subjects received placebo; the first study drug administration (or its matching placebo) occurred on Day 2. Regimen A consisted of the novel up-titration regimen: ponesimod was administered once daily (o.d.) orally at a dose of 2 mg on Day 2 and Day 3, 3 mg on Day 4 and Day 5, 4 mg on Day 6 and Day 7, 5 mg on Day 8, 6 mg on Day 9, 7 mg on Day 10, 8 mg on Day 11, 9 mg on Day 12, 10 mg on Day 13 and Day 14, and 20 mg on Day 15. The reference regimen (regimen B) was based on previous studies (Olsson T. et al., Oral ponesimod in relapsing-remitting multiple sclerosis: a randomised phase II trial. J Neurol Neurosurg Psychiatry. 2014; 85 (11): 1198-1208; and Vaclavkova A. et al., Oral ponesimod in patients with chronic plaque psoriasis: a randomised, double-blind, placebo-controlled phase 2 trial. Lancet. 2014; 384 (9959): 2036-2045) and consisted of an o.d. oral administration of ponesimod at a dose of 10 mg for 7 days (i.e., from Day 2 to Day 8) and 20 mg on Day 9. From Day 10 to Day 15 subjects received o.d. the matching placebo. In the placebo group (1:1 sex ratio), subjects received placebo from Day 1 to Day 15. All treatments were administered at the same time in the morning (fasted condition) with approximately 240 mL of water.
Cardiodynamic endpoints were assessed using Holter and 12-lead ECG. The 24-h Holter recordings were performed on Day -1, Day 1, Day 2, Day 9, Day 13, and Day 15. The 12-h Holter recordings were performed on the other days. In addition, Holter data were used to estimate the area under the effect curve (AUEC) for HR. 12-lead ECGs were performed from Day −1 to Day 16 at pre-dose and 1, 2, 3, 4, 5, 6, 8, 10, and 12 h after study drug administration. An additional 12-lead ECG recording was performed at EOFP and EOS. Heart rate nadir, Emax (maximum decrease of mean hourly HR from baseline, which was defined as the mean of the time-matched assessments measured on Day −1 and Day 1 pre-dose), and occurrence of values of interest (HR <45 bpm, HR decrease from baseline >20 bpm, and PR interval increase from baseline >20 ms), and AV-blocks (i.e., […]) were obtained with 12-lead ECG.
Cardiodynamic and pharmacodynamic data are expressed as mean±SD. Repeated measure one-way ANOVAs followed by Tukey's multiple-comparisons tests were used to perform inter-group (i.e., placebo vs. regimen A vs. regimen B) comparisons. Student's t-tests were employed to perform intra-group (baseline vs. treatment) comparisons. Differences were considered to be statistically significant at p <0.05. SAS® version 9.2 (SAS Institute, Cary, NC, USA) was used for the statistical analysis and descriptive statistics of clinical data.

healthy subjects [3] = test: Pulmonary function tests and clinical laboratory (hematology); conditions: hemoglobin, hematocrit, red blood cell count, basophils, eosinophils, neutrophils, monocytes, platelet count
Method: (§3) Safety and tolerability were evaluated by monitoring adverse events (AEs), vital signs measurements (supine blood pressure), pulmonary function tests (PFTs; i.e., FEV1 and FVC), clinical laboratory, physical, and neurological examinations. Recording of blood pressure was performed at the same time-points as 12-lead ECG.

healthy subjects [4] = test: Safety and tolerability, adverse events
Method: as §1, §2, §3

[5] = Regimen A (N = 24), Day 2 to EOFP or EOS visit
[6] = Regimen B (N = 24), Day 2 to EOFP or EOS visit

## CCC/N=C1\S/C(=C\c2ccc(OC[C@H](O)CO)c(Cl)c2)C(=O)N1c1ccccc1C [ponesimod, (R)-5-[3-chloro-4-(2,3-dihydroxy-propoxy)-benz[Z]ylidene]-2-([Z]-propylimino)-3-o-tolyl-thiazolidin-4-one]
[1]
  reduction in the number of peripheral blood lymphocytes: consistent, sustained, and dose-dependent reduction
Healthy subjects [2]; 2 mg (regimen A)
  mean maximum change from baseline in HR (12-lead ECG): −9±5.3 bpm
Healthy subjects [2]; 2 mg second dose
  decrease in HR vs. baseline (12-lead ECG): −9±5.2 bpm
Healthy subjects [2]; 10 mg (regimen B)
  mean maximum change from baseline in HR (12-lead ECG): −13±6.2 bpm
Healthy subjects [2]; 10 mg second dose
  decrease in HR vs. baseline (12-lead ECG): −10±5.1 bpm
Healthy subjects [2]; Day 4 to last day of administration, ponesimod-treated subjects
  pre-dose HR values (range): 56-60 bpm
Healthy subjects [2]; [5]
  Atrial rhythm, number of events: 19
  Atrial rhythm, number of subjects: 4
  Atrial rhythm, percentage of subjects: 16.7 percentage
  Sinus bradycardia, number of events: 3
  Sinus bradycardia, number of subjects: 3
  Sinus bradycardia, percentage of subjects: 12.5 percentage
  Supraventricular extrasystoles, number of events: 15
  Supraventricular extrasystoles, number of subjects: 3
  Supraventricular extrasystoles, percentage of subjects: 12.5 percentage
  Ventricular extrasystoles, number of events: 1
  Ventricular extrasystoles, number of subjects: 1
  Ventricular extrasystoles, percentage of subjects: 4.2 percentage
Healthy subjects [2]; [6]
  AV-block 1st degree, number of events: 130
  AV-block 1st degree, number of subjects: 6
  AV-block 1st degree, percentage of subjects: 25.0 percentage
  AV-block 2nd degree Mobitz I, number of events: 1
  AV-block 2nd degree Mobitz I, number of subjects: 1
  AV-block 2nd degree Mobitz I, percentage of subjects: 4.2 percentage
  Atrial fibrillation, number of subjects: 1
  Atrial fibrillation, percentage of subjects: 4.2 percentage
  Atrial rhythm, number of events: 12
  Atrial rhythm, number of subjects: 2
  Atrial rhythm, percentage of subjects: 8.3 percentage
  QT prolonged, number of events: 142
  QT prolonged, number of subjects: 6
  QT prolonged, percentage of subjects: 25.0 percentage
  Short PQ, number of events: 147
  Short PQ, number of subjects: 6
  Short PQ, percentage of subjects: 25.0 percentage
  Sinus arrhythmia, number of events: 98
  Sinus arrhythmia, number of subjects: 12
  Sinus arrhythmia, percentage of subjects: 50.0 percentage
  Sinus bradycardia, number of events: 33
  Sinus bradycardia, number of subjects: 3
  Sinus bradycardia, percentage of subjects: 12.5 percentage
  Supraventricular extrasystoles, number of events: 29
  Supraventricular extrasystoles, number of subjects: 7
  Supraventricular extrasystoles, percentage of subjects: 29.2 percentage
  Ventricular extrasystoles, number of events: 3
  Ventricular extrasystoles, number of subjects: 3
  Ventricular extrasystoles, percentage of subjects: 12.5 percentage
Healthy subjects [2]; Regimen B (N = 24), Day 2 to EOFP or EOS visit, *Serious adverse event
  Atrial fibrillation, number of events: 1
Healthy subjects [2]; regimen A
  time for HR to return to baseline values post-dose (12-lead ECG): ≤ 3 h
  occurrence of HR <45 bpm, events: 20 events
  occurrence of HR <45 bpm, subjects: 3 subjects
  occurrence of PR interval >210 ms, events: 79 events
  occurrence of PR interval >210 ms, subjects: 6 subjects
  occurrence of HR <45 bpm, HR decrease >20 bpm, PR interval ≥200 ms or PR increase >20 ms, events: 14 events
  occurrence of HR <45 bpm, HR decrease >20 bpm, PR interval ≥200 ms or PR increase >20 ms, subjects: 6 subjects
  percentage of subjects with at least one event (HR <45 bpm, HR decrease >20 bpm, PR ≥200 ms, PR increase >20 ms): 25%
Healthy subjects [2]; regimen B
  time for HR to return to baseline values post-dose (12-lead ECG): ≤ 4 h
  occurrence of HR <45 bpm, events: 58 events
  occurrence of HR <45 bpm, subjects: 4 subjects
  occurrence of PR interval >210 ms, events: 143 events
  occurrence of PR interval >210 ms, subjects: 8 subjects
  occurrence of HR <45 bpm, HR decrease >20 bpm, PR interval ≥200 ms or PR increase >20 ms, events: 43 events
  occurrence of HR <45 bpm, HR decrease >20 bpm, PR interval ≥200 ms or PR increase >20 ms, subjects: 12 subjects
  percentage of subjects with at least one event (HR <45 bpm, HR decrease >20 bpm, PR ≥200 ms, PR increase >20 ms): 50%
Healthy subjects [3]
  effect on PFT variables and hematology variables: No treatment effect
Healthy subjects [4]; 20 mg ponesimod (regimen B)
  time of serious AE of atrial fibrillation after administration: 6 h
  time to resolution of serious AE of atrial fibrillation without sequelae: ≤ 24 h
Healthy subjects [4]; after 20 mg ponesimod (regimen B)
  serious AE: One serious AE of atrial fibrillation
Healthy subjects [4]; all treatment groups
  intensity of AEs: mild to moderate
Healthy subjects [4]; on ponesimod, also among the most common in the placebo group
  most commonly reported AEs: headache, dizziness, and procedural site reaction
Healthy subjects [4]; regimen B vs regimen A
  AEs of special interest related to cardiac function (sinus bradycardia and palpitations): reported more frequently during regimen B compared to regimen A
